Measurements from patent US6699879B1, “Phenyl urea and phenyl thiourea derivatives as orexin receptor antagonists” (SmithKline Beecham p.l.c., priority 1999, dated 2004).
No end group written: not given here.

Tests used:
orexin receptors = assay: Rat sleep/EEG studies, central administration; type: in vivo; details: central administration at the onset of the normal sleep period; largely at the expense of paradoxical sleep and slow wave sleep 2
Description: Therefore antagonists of its receptor may be useful in the treatment of sleep disorders including insomnia.

freely-feeding rats = details: central administration, 4 hour time period; cited from earlier work

orexin-A: ligand for the orexin-1 receptor, an agonist of the orexin receptors; 33-residue peptide, sequence in the 1st table (QPLPDCCRQKTCSCRLYELLHGAGNHAAGILTL-NH2; not fully specified (residue 1, bridges); ends and bridges not checked; UniProt O43612 34-66, looked up)
effect on arousal (orexin receptors): dose-related increase in arousal
increase in food intake over control rats receiving vehicle (freely-feeding rats): approximately four-fold
